Measured values reported in patent publication US20250129070A1, “BIFUNCTIONAL ANDROGEN RECEPTOR COMPOUNDS” (priority 2023, published 2025).

Assays:
VCaP cells = test: VCaP growth inhibition assay; type: cell-based; details: 30 pM R1881, 9 days, CTG
Outline: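 VCaP cells in phenol red-free DMEM/5% CSS, pre-incubated 72 h, then stimulated with R1881 (final 30 pM) and treated with 1:5 serial dilutions (final 100 nM to 10 fM) for 9 days at 37 °C. Viability by CellTiter-Glo luminescence; IC50 from 4-parameter logistic fit of RLU vs concentration.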

AR / CBP ternary complex = test: Ternary complex formation assay (sandwich ELISA, AR capture / CBP detection) in VCaP cell lysates; type: cell-based; details: 1.5 hours treatment, sandwich ELISA (AR capture, CBP or p300 detection)
Outline: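 VCaP cells (50K/well, 5% charcoal-stripped FBS, ≥3 days) treated with bifunctional compound for 1.5 h, then lysed 30 min at 4 °C. AR captured on anti-AR (AR 441) plates; bound CBP or p300 detected by rabbit mAb plus HRP secondary. QuantaRed chemifluorescence read at ex 570/em 585, immediately and at 5 and 15 min.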

IC50 (VCaP cells) [nM]	EC50 (AR / CBP ternary complex) [nM]	Structure (SMILES)
> 100	> 100	CC(=O)N1CCc2c(c(N3CCCc4cc(-c5cnn(C)c5)c(C(F)F)cc43)nn2C2CCC3(CCCN(c4ncc(C(=O)NC5C(C)(C)C(Oc6ccc(C#N)c(Cl)c6)C5(C)C)cn4)C3)CC2)C1 (stereo not shown) [Compound 412, 2-[9-[5-acetyl-3-[7-(difluoromethyl)-6-(1-methylpyrazol-4-yl)-3,4-dihydro-2H-quinolin-1-yl]-6,7-dihydro-4H-pyrazolo[4,3-c]pyridin-1-yl]-2-azaspiro[5.5]undecan-2-yl]-N-[3-(3-chloro-4-cyano-phenoxy)-2,2,4,4-tetramethyl-cyclobutyl]pyrimidine-5-carboxamide]
0.1 to 1	< 1	COc1cc(OC2C(C)(C)C(NC(=O)c3ccc(N4CCC(CN5CCC(n6nc(N7CCCc8cc(C#N)c(C(F)F)cc87)c7c6CCN(C(C)=O)C7)CC5)C(C)(C)C4)cc3)C2(C)C)ccc1C#N (stereo not shown) [Compound 451, 4-[4-[[4-[5-acetyl-3-[6-cyano-7-(difluoromethyl)-3,4-dihydro-2H-quinolin-1-yl]-6,7-dihydro-4H-pyrazolo[4,3-c]pyridin-1-yl]-1-piperidyl]methyl]-3,3-dimethyl-1-piperidyl]-N-[3-(4-cyano-3-methoxy-phenoxy)-2,2,4,4-tetramethyl-cyclobutyl]benzamide]
0.1 to 1	< 1	CC(=O)N1CCc2c(c(N3CCCc4cc(-c5cnn(C)c5)c(C)cc43)nn2C2CCN(C3CCC4(CC3)CN(c3ncc(C(=O)NC5C(C)(C)C(Oc6ccc(C#N)c(Cl)c6)C5(C)C)cn3)C4)CC2)C1 (stereo not shown) [Compound 468, 2-[7-[4-[5-acetyl-3-[7-methyl-6-(1-methylpyrazol-4-yl)-3,4-dihydro-2H-quinolin-1-yl]-6,7-dihydro-4H-pyrazolo[4,3-c]pyridin-1-yl]-1-piperidyl]-2-azaspiro[3.5]nonan-2-yl]-N-[3-(3-chloro-4-cyano-phenoxy)-2,2,4,4-tetramethyl-cyclobutyl]pyrimidine-5-carboxamide]
1 to 100	1 to 10	CC(=O)N1CCc2c(c(N3CCCc4cc(-c5cnn(C)c5)c(C(F)F)cc43)nn2C2CCN([C@@H]3CCCN(c4ncc(C(=O)NC5C(C)(C)C(Oc6ccc(C#N)c(Cl)c6)C5(C)C)cn4)C3)CC2)C1 (stereo partly drawn) [Compound 398, 2-[(3R)-3-[4-[5-acetyl-3-[7-(difluoromethyl)-6-(1-methylpyrazol-4-yl)-3,4-dihydro-2H-quinolin-1-yl]-6,7-dihydro-4H-pyrazolo[4,3-c]pyridin-1-yl]-1-piperidyl]-1-piperidyl]-N-[3-(3-chloro-4-cyano-phenoxy)-2,2,4,4-tetramethyl-cyclobutyl]pyrimidine-5-carboxamide]

Second part, the molecule before the results:

Structure (SMILES)	IC50 (VCaP cells) [nM]	EC50 (AR / CBP ternary complex) [nM]
C[C@@H]1CC(=O)Nc2cccc(-c3ccc4c(c3)c(-c3cnn(C)c3)nn4C3CCN(c4ncc(C(=O)NC5C(C)(C)C(Oc6ccc(C#N)c(Cl)c6)C5(C)C)cn4)CC3)c2N1 (stereo partly drawn) [Compound 60, N-[3-(3-chloro-4-cyano-phenoxy)-2,2,4,4-tetramethyl-cyclobutyl]-2-[4-[5-[(4R)-4-methyl-2-oxo-1,3,4,5-tetrahydro-1,5-benzodiazepin-6-yl]-3-(1-methylpyrazol-4-yl)indazol-1-yl]-1-piperidyl]pyrimidine-5-carboxamide]	> 100	> 100
CC(=O)N1CCc2c(c(N3CCCc4cc(-c5cnn(C)c5)c(C(F)F)cc43)nn2C2CCC(C3CCC4(CC3)CN(c3ncc(C(=O)NC5C(C)(C)C(Oc6ccc(C#N)c(Cl)c6)C5(C)C)cn3)C4)CC2)C1 (stereo not shown) [Compound 379, 2-[7-[4-[5-acetyl-3-[7-(difluoromethyl)-6-(1-methylpyrazol-4-yl)-3,4-dihydro-2H-quinolin-1-yl]-6,7-dihydro-4H-pyrazolo[4,3-c]pyridin-1-yl]cyclohexyl]-2-azaspiro[3.5]nonan-2-yl]-N-[3-(3-chloro-4-cyano-phenoxy)-2,2,4,4-tetramethyl-cyclobutyl]pyrimidine-5-carboxamide]	1 to 100	1 to 10
CC(=O)N1CCc2c(c(-c3cccc4cc(-c5ccc(C(=O)NCCOCc6ncc(C(=O)NC7C(C)(C)C(Oc8ccc(C#N)c(Cl)c8)C7(C)C)cn6)nc5)ncc34)nn2C2CCOCC2)C1 (stereo not shown) [Compound 76, 2-[2-[[5-[8-(5-acetyl-1-tetrahydropyran-4-yl-6,7-dihydro-4H-pyrazolo[4,3-c]pyridin-3-yl)-3-isoquinolyl]pyridine-2-carbonyl]amino]ethoxymethyl]-N-[3-(3-chloro-4-cyano-phenoxy)-2,2,4,4-tetramethyl-cyclobutyl]pyrimidine-5-carboxamide]	≤ 0.1	< 1
CC(=O)N1CCc2c(c(N3CCCc4cc(-c5cnn(C)c5)c(C(F)F)cc43)nn2C2CCN(Cc3cn(Cc4ncc(C(=O)NC5C(C)(C)C(Oc6ccc(C#N)c(Cl)c6)C5(C)C)cn4)nn3)CC2)C1 (stereo not shown) [Compound 188, 2-[[4-[[4-[5-acetyl-3-[7-(difluoromethyl)-6-(1-methylpyrazol-4-yl)-3,4-dihydro-2H-quinolin-1-yl]-6,7-dihydro-4H-pyrazolo[4,3-c]pyridin-1-yl]-1-piperidyl]methyl]triazol-1-yl]methyl]-N-[3-(3-chloro-4-cyano-phenoxy)-2,2,4,4-tetramethyl-cyclobutyl]pyrimidine-5-carboxamide]	≤ 0.1	< 1
CC(=O)N1CCc2c(c(N3CCCc4cc(-c5cnn(C)c5)c(C(F)F)cc43)nn2C2CCN(C(C)COC3CCN(c4ncc(C(=O)NC5C(C)(C)C(Oc6ccc(C#N)c(Cl)c6)C5(C)C)cn4)CC3)CC2)C1 (stereo not shown) [Compound 169, 2-[4-[2-[4-[5-acetyl-3-[7-(difluoromethyl)-6-(1-methylpyrazol-4-yl)-3,4-dihydro-2H-quinolin-1-yl]-6,7-dihydro-4H-pyrazolo[4,3-c]pyridin-1-yl]-1-piperidyl]propoxy]-1-piperidyl]-N-[3-(3-chloro-4-cyano-phenoxy)-2,2,4,4-tetramethyl-cyclobutyl]pyrimidine-5-carboxamide]	≤ 0.1	< 1
CC(=O)N1CCc2c(c(-c3cccc4cc(-c5ccc(CC6CC7(C6)CN(c6ncc(C(=O)NC8C(C)(C)C(Oc9ccc(C#N)c(Cl)c9)C8(C)C)cn6)C7)nc5)ncc34)nn2C)C1 (stereo not shown) [Compound 230, 2-[6-[[5-[8-(5-acetyl-1-methyl-6,7-dihydro-4H-pyrazolo[4,3-c]pyridin-3-yl)-3-isoquinolyl]-2-pyridyl]methyl]-2-azaspiro[3.3]heptan-2-yl]-N-[3-(3-chloro-4-cyano-phenoxy)-2,2,4,4-tetramethyl-cyclobutyl]pyrimidine-5-carboxamide]	0.1 to 1	10 to 100
Cn1c(=O)n(C)c2cc(-c3cccc4cc(-c5ccc(CCC6CCN(c7ncc(C(=O)NC8C(C)(C)C(Oc9ccc(C#N)c(Cl)c9)C8(C)C)cn7)CC6)nc5)ncc34)ccc21 (stereo not shown) [Compound 232, N-[3-(3-chloro-4-cyano-phenoxy)-2,2,4,4-tetramethyl-cyclobutyl]-2-[4-[2-[5-[8-(1,3-dimethyl-2-oxo-benzimidazol-5-yl)-3-isoquinolyl]-2-pyridyl]ethyl]-1-piperidyl]pyrimidine-5-carboxamide]	> 100	10 to 100
